The structures appear in SMILES notation.

This test addresses carboxylesterase Ha006a. As to the kind of experiment: ITC with purified protein, one-site model, […] °C. Format: binding, Helicoverpa armigera.

On to `CCNc1nc(Cl)nc(NC(C)C)n1` [ATZ, atrazine], for which the Kd (usually a measure of binding affinity in units of concentration) stood at 57 µM.

Source of the values: PMC11291634 (Scientific Reports, 2024).
